Data set [1] deals with OAcGD2 expression in MDA-MB-231 GD3S+ cells. Put plainly: OAcGD2 immunocytochemistry and confocal microscopy after CERK inhibitor or siRNA. The format is cell-based, human. The conditions noted are these: 1 μM NVP231, 2, 4, 6, 8, 20, 24 or 48 hours; increase from 2 to 8 hours, decrease after 8 hours. Here is the method: (§1) Transfections were performed with 10 μM of siRNA control non-targeting (D001810-10-20, Horizon), siRNA targeting CASD1 (L-016926-01-0010, Horizon), or two different siRNA targeting CERK: CERK2 (D-004061-02-0010, Horizon), or CERK4 ([…], Horizon) and 4 μL of RNAimax (#137781, Thermo fischer Scientific) in 500 μL of UltraMEM (Lonza). In 6-well plates, 150,000 cells were grown in 1,5 mL of DMEM and transfection mix. Cells were collected 72 hours after transfection for qPCR or immunocytochemistry experiments.
Cells were seeded in 6-well plates (150,000 cells/well) with coverslips in 2 mL of DMEM medium. After 24 hours, the medium was replaced with DMEM containing 1 μM of the CERK inhibitor NVP231 (SigmaN9289). After 2 h, 4 h, 6 h, 8 h, 20 h, 24 h or 48 h of CERK inhibitor treatment, cells were collected for immunocytochemistry experiments.
Transfected cells were grown on glass coverslips and were fixed for 20 min in 4% paraformaldehyde. Cells were washed three times with PBS 1X and membrane permeabilization was performed in 5 μg/mL digitonine in PBS 1X for 20 min. After 3 washes, cells were saturated in PBS 1X-BSA 0.5% blocking buffer. […] The green fluorescence was acquired with λex=488 nm and λem=500-530 nm, DAPI with λex=350 nm and λem=460 nm. […] Mean fluorescence intensity was calculated with macro using ImageJ.

The test system of a further data set is MDA-MB-231 GD3S+ cells. Put plainly: Transwell migration assay. The conditions noted are these: 1 μM NVP231, 24 hours, vs untreated. It is filed as cell-based, human. On the procedure:
as §1
Cells were seeded in 12-well plates containing migration chamber in serum-free medium. Below the chamber, medium with serum was added into the wells in the presence or absence of 1 μM of NVP231. After 24 hours incubation at 37° C., wells were fixed with 4% paraformaldehyde and non-migratory cells were swapped with cotton swabs. Cells were washed three times and nuclei were stained with DAPI. Membranes were cut out and mounted between glass slide and coverslip with fluorescent mounting medium. Nuclei were counted using A1 Nikon confocal microscopy.

The subject of data set [2] is OAcGD2 expression in MDA-MB-231 GD3S+ cells. Put plainly: siRNA screen, OAcGD2 immunofluorescence (8B6 mAb) with automated imaging. It is filed as cell-based, human. The conditions noted are these: fixed cells treated with NaOH 0.1M before primary antibody staining, compared to siNT transfected wells. Here is the method: 2.5 μL/well of 500 nM siGenome siRNA (Dharmacon/Horizon) was printed into blackwalled 384 well cell carrier ultra plates (Perkin Elmer) with Velocity 11 (Agilent) as described before (Chia et al., 2012, Mol. Syst. Biol., 8: 629.). Reverse siRNA transfection was performed by pre-mixing 0.1 μL of Dharmafect 1 transfection reagent (#T-2001-03, Horizon) with 7.4 μL of Optimem for 5 minutes. Addition of mixture to the siRNA plate was then performed with small multidrop combi cassette (Thermo-Fisher) and was left for complexation for 20 minutes with shaking. Addition of 2750 cells in 40 μL of DMEM supplemented with 10% FCS per well was then performed with multidrop combi standard cassette at medium speed (Thermo-Fisher). siRNA targeting-GD2S (L-011279-00-0020, Horizon), Polo like kinase 1 (PLK1; L-003290-00-0020, Horizon) and […] (D-001810-10-20, Horizon) were used as screen controls.
After 72 h of incubation, transfected cells were fixed with 50 μL per well of 4% paraformaldehyde in 2% sucrose and 0.1M sodium phosphate buffer, […] at 37° C. […]
An OAcGD2 expression metric was derived with total cell thresholded fluorescence intensity obtained by immunodetection with 8B6 mAb in MDA-MB-231 GD3S+cells and was normalized with Hoeschst nuclei counts. […]

For data set [3] the following is noted: attributed to GD2 expression in healthy peripheral nerve fibers; cited from earlier work.

For `O=C(Nc1nc2ccc(NC(=O)C34CC5CC(CC(C5)C3)C4)cc2s1)c1ccccc1` [CERK inhibitor, NVP231], the “OAcGD2 expression (mean fluorescence intensity)” value in data set [1] was “transitory overexpression”. In addition, in the data set with MDA-MB-231 GD3S+ cells, the “migration capacity of the cells” value was “no effect”.
`[Na+].[OH-]` [NaOH, Sodium hydroxide]: the OAcGD2 staining result in data set [2] is on record as “abolished”.

B1: Dinutuximab: anti-GD2 monoclonal antibody approved for pediatric high-risk neuroblastoma (antibody, chains of the INN, looked up, V domains shown)
VH: EVQLLQSGPELEKPGASVMISCKASGSSFTGYNMNWVRQNIGKSLEWIGAIDPYYGGTSYNQKFKGRATLTVDKSSSTAYMHLKSLTSEDSAVYYCVSGMEYWGQGTSVTVSS
VL: EIVMTQSPATLSVSPGERATLSCRSSQSLVHRNGNTYLHWYLQKPGQSPKLLIHKVSNRFSGVPDRFSGSGSGTDFTLKISRVEAEDLGVYFCSQSTHVPPLTFGAGTKLELK
For the molecule B1, in data set [3], the side effects entry is on record as “severe side effects”.

(Values after patent publication US20240142457A1, “USE OF CASD1 AS A BIOMARKER OF A CANCER EXPRESSING THE O-ACETYLATED-GD2 GANGLIOSIDE” (OGD2 PHARMA, priority 2021, published 2024).)
